The text below walks through data of US6495376B1, “Methods and compositions for regulating protein-protein interactions” (Beth Israel Deaconess Medical Center, priority 1999, dated 2002).

The target of one data set is […] (Pro-Rich). The data set is described as follows: Fluorescence anisotropy binding to fluorescein-labeled Pro-rich peptide. Conditions: GST-WW-domains; † estimated Kd, no plateau at 100 μM WW-domain.
Data set [1] addresses […] (Cdc25 Peptide, nonphosphorylated). The data set is described as follows: GST-WW-domain incubated with peptide on a membrane, immunoblotting with GST antibody. The data set is classed as binding.
Data set [2] deals with MPM-2 antigens (mitotic phosphoproteins) of mitotic HeLa cell extracts. Put plainly: GST pulldown from mitotic HeLa cell extracts, MPM-2 immunoblotting (phosphoprotein-binding activity). Conditions: for Phosphoprotein binding activity: GST-fusion proteins with mitotic extracts, MPM2 antibody; for binding to mitotic phosphoproteins / MPM-2 antigens (in words): mitotic HeLa cell extracts; for effect of phosphorylation by PKA on interaction with MPM2 antigens: protein phosphorylated by PKA before binding. As for the experimental part:
GST-fusion proteins containing the WW-domain, PPIase-domain or the entire Pin 1 protein were prepared and incubated with interphase (G1/S arrested; Control) or dividing (M phase) HeLa cell extracts using well-known procedures (Lu, K. P., et al., Nature 380:544 (1996); (Shen, M., et al., Genes & Devl. 12:706 (1998)). Briefly, HeLa cells were arrested at the G1/S boundary or mitosis by incubation with thymidine and aphidicolin or nocodazole for 16 h, respectively. The cells were lysed and supernatants incubated with 10 μl of agarose beads containing GST-Pin1; GST-WW-domain of Pin1; GST-PPIase domain of Pin1; or control GST for 2 h at 4° C. The phosphorylated precipitated proteins were washed 5 times in buffer containing 1% Triton X-100 before subjecting to immunoblotting analysis using MPM-2 antibody, as described previously (Yaffe, M. B. et al., Science 278:1957 (1997); Schukowski, et al., Biochemistry 37:5566 (1998); Shen, M. et al., Genes & Dev 12:706 (1998)). MPM-2 recognizes a subset of mitotic phosphoproteins including Pin1-binding proteins such as cdc25.
Pintide and its nonphosphorylated counterpart were synthesized and incubated with GST-Pin1 or the GST-WW-domain of Pin1 in a binding buffer, using established procedures (Shen, M. et al., Genes & Dev 12:706 (1998)). After a 1 hr incubation, mitotic HeLa cell extracts were added and subjected to GST pull down experiments, followed by immunoblotting analysis using the MPM-2 antibody. To obtain semi-quantitative data, films of immunoblots were scanned at the region of 55 kDa, the major Pin1-binding protein, and data analyzed using ImageQuan (ScanJet II CX). The peptide binding constants were measured using a fluorescence polarization assay (Jiskoot, W. et al., Anal Biochem 196:421 (1991)). Peptides were fluorescein labeled at the N-terminus using the Fluorescein Amine Labeling Kit (Pan Vera Corp.) and purified by TLC according to the manufacturer's […]. To prevent nonspecific labeling, a Pintide analogue (WFYpSPFLE) SEQ ID NO: 8 and the nonphosphorylated control were used. Various concentrations of Pin1 and its mutant proteins were incubated with 0.1 μM of the labeled peptides in a binding buffer containing 50 mM HEPES, pH 7.4, 100 mM NaCl, 2% glycerol. Fluorescence polarization values were obtained using a Pan Vera Beacon 2000 system, as described by the manufacturer.
To examine the effect of Pin1 phosphorylation on Pin1 binding to ligands, Pin1 and Pin1 mutant proteins were incubated with the catalytic subunit of PKA and PKC (a mixture of α, β and γ, UBI) in a kinase reaction buffer containing 500 μM cold ATP at 30° C. for 15 min (Lu, K. P. et al., Anal. Biochem. 196:421 (1991)). The reactions were stopped by adding SDS sample buffer and reaction products separated on SDS-gels, followed by autoradiography. Pin1 proteins were isolated and used to bind MPM-2 antigens from mitotic extracts from HeLa cells, as previously described (Shen, M., et al., Genes & Dev 12:706 (1998)). Experiments were also performed with PKA and PKC, casein kinase, cyclin B/Cdc2 and SRPK1 kinases.

A further data set concerns Cdc2 phosphorylated tau. Put plainly: Binding of Cdc2 phosphorylated tau to Taxol-stabilized microtubules. It counts as biochemical. Conditions: Pin1 0.1 mg/ml, tau 0.1 mg/ml. From the text: The high affinity interaction between Pin 1 and phosphorylated tau can affect the biological activity of tau. Upon phosphorylation by many protein kinases, including Cdc2, tau loses its ability to bind microtubules (MTs) and promote MT assembly (Bramblett, G. T. et al., Neuron 10:1089-1099 (1993); Iqbal, K. et al., FEBS Lett 349:104-108 (1994); Yoshida, H. and Ihara, Y. J Neurochem 61:1183-1186 (1993); Alonso, A. C. et al., Proc Natl Acad Sci USA 91:5562-5566 (1994); Busciglio, J. et al., Neuron 14:879-888 (1995)) although the exact mechanism is not fully understood. To determine whether Pin1 can restore the ability of phosphorylated tau to bind MTs, phosphorylated tau was produced using purified Cdc2 (Vincent, I. et al., J Cell Biol 132:413-425 (1996); Vincent, I. et al., J Neurosci 17:3588-3598 (1997)) and assessed for its ability to bind Taxol-stabilized MTs in the presence or absence of Pin1. […] Pin1 was detected in the fraction of tau-bound MTs confirming interaction between Pin1 and phosphorylated tau.
Cdc2 phosphorylated tau, sequence (P10636 45-219 isoform P10636-2 limits assumed): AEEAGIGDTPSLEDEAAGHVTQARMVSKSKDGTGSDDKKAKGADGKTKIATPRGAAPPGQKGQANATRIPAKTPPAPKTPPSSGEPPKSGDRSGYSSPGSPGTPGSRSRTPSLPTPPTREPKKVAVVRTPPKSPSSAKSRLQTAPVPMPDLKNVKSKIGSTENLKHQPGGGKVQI
The effect of Pin1 on the ability of phosphorylated tau to promote MT assembly was determined using light-scattering assays (Bramblett, G. T. et al., Neuron 10:1089-1099(1993); Alonso, A. C. et al., Proc Natl Acad Sci USA 91:5562-5566 (1994); Busciglio, J. et al., Neuron 14:879-888 (1995)). […]

The test system of the next data set is peptide substrate. Put plainly: PPIase activity assay with peptide substrate. Particulars: relative to wild-type protein defined as 100%. It counts as biochemical.

Consider “Pin1 WW-domain: N-terminal WW-domain (amino acids 1-54) of Pin1 (MADEEKLPPGWEKRMSRSSGRVYYFNHITNASQWERPSGNSSSGGKNGQGEPAR; left off: a dimerising Fc or GST)”, for which the “Kd (μM) Pro-Rich IPGTPPPNYD” value in data set […] (Pro-Rich) is recorded as “N.B”. In addition, the “Kd (μM) Cdc25 Peptide EQPLTPVTDL” value in data set [1] is reported as “N.B.*”. In data set [2], the Phosphoprotein binding activity result was “+ (binding was detected)”, the “binding to mitotic phosphoproteins / MPM-2 antigens (in words)” value is listed as “strong binding” and the “effect of phosphorylation by PKA on interaction with MPM2 antigens” value is on record as “completely abolished”.

Consider “Pin1: wild-type human prolyl isomerase (PPIase) Pin1 with N-terminal WW-domain; tag cleaved in Table 2”, for which, in the data set on Cdc2 phosphorylated tau, the “restoration of binding of Cdc2 phosphorylated tau to MTs” value is reported as “binding was restored”. In addition, in data set [2], the Phosphoprotein binding activity result is “+ (binding was detected)”, the “binding to mitotic phosphoproteins / MPM-2 antigens (in words)” value is “strong binding” and the “effect of phosphorylation by PKA on interaction with MPM2 antigens” value is recorded as “completely abolished”. In addition, the “PPlase Activity (%)” value with peptide substrate is listed as 100%.
